This passage reports IC50 results from patent US10961200B2, “Small molecule inhibitors of lactate dehydrogenase and methods of use thereof” (THE UNITED STATES OF AMERICA, AS REPRESENTED BY THE …, priority 2014, dated 2021).

A value given as a limit tells only on which side of the number the result lay.

The first assay addresses Human LDHA (Homo sapiens (Human), UniProt P00338). The experiment in a line: human LDHA primary biochemical assay (resazurin/diaphorase coupled, fluorescence). As to conditions: LDHA inhibitory activity, activity level based on IC50 (Table 7). An excerpt: Test compounds were placed in a Greiner Bio-One (Monroe, N.C.) 1536-well black solid bottom assay plate. 200 millimolar (mM) Tris HCl, pH 7.4, 100 micromolar […] EDTA and 0.01% TWEEN-20™, final concentration, was used as the assay buffer. The LDHA reagent was 2 nanomolar (nM) Human LDHA (Meridian Life Science, Inc., Memphis, Tenn.), final concentration, in assay buffer.
A word on the IC50: it is the concentration that inhibits the measured activity by half. For the compound `CCc1cccc(-c2cc(-c3nn(-c4nc(C(=O)O)cs4)cc3Cc3ccc(S(N)(=O)=O)cc3)ccc2C)c1` [Compound 488, 2-(3-(3′-ethyl-6-methyl-[1,1′-biphenyl]-3-yl)-4-(4-sulfamoylbenzyl)-1H-pyrazol-1-yl)thiazole-4-carboxylic acid], the IC50 fell in the range of 100 to 1000 nM.
The same measure, in the same setting: then `NS(=O)(=O)c1ccc(Cc2cn(-c3nc(C(=O)O)cs3)nc2-c2ccc(F)c(-c3cc(Cl)cc(Cl)c3)c2)cc1` [Compound 514, 2-(3-(3′,5′-dichloro-6-fluoro-[1,1′-biphenyl]-3-yl)-4-(4-sulfamoylbenzyl)-1H-pyrazol-1-yl)thiazole-4-carboxylic acid], with 1000 to 57000 nM; and `Cc1ccc(-c2nn(-c3nc(C(=O)O)cs3)cc2Cc2ccc(S(N)(=O)=O)cc2)cc1-c1ccc(F)c(F)c1` [Compound 492, 2-(3-(3′,4′-difluoro-6-methyl-[1,1′-biphenyl]-3-yl)-4-(4-sulfamoylbenzyl)-1H-pyrazol-1-yl)thiazole-4-carboxylic acid], with 100 to 1000 nM; and `NS(=O)(=O)c1ccc(Cc2c(-c3cccc(OCc4ccccc4)c3)nn(-c3nc(C(=O)O)cs3)c2CC2CC2)cc1F` [Compound 340], with less than 100 nM.
`CCCCC#Cc1cc(-c2nn(-c3nc(C(=O)O)cs3)c(CC3CC3)c2Cc2ccc(S(N)(=O)=O)c(F)c2)ccc1F` [Compound 540, 2-(5-(cyclopropylmethyl)-3-(4-fluoro-3-(hex-1-yn-1-yl)phenyl)-4-(3-fluoro-4-sulfamoylbenzyl)-1H-pyrazol-1-yl)thiazole-4-carboxylic acid] yielded a concentration for half-maximal inhibition (IC50) of less than 100 nM.
Consider `NS(=O)(=O)c1ccc(Cc2c(-c3cccc(N4CCC(C(F)(F)F)CC4)c3)nn(-c3nc(C(=O)O)cs3)c2CC2CC2)cc1F` [Compound 392], for which the IC50 is less than 100 nM.
In the case of `COc1ccc(-c2cc(-c3nn(-c4nc(C(=O)O)cs4)cc3Cc3ccc(S(N)(=O)=O)cc3)ccc2C)cc1F` [Compound 494, 2-(3-(3′-fluoro-4′-methoxy-6-methyl-[1,1′-biphenyl]-3-yl)-4-(4-sulfamoylbenzyl)-1H-pyrazol-1-yl)thiazole-4-carboxylic acid], the IC50 was 100 to 1000 nM.
On the same count and under the same terms, then `NS(=O)(=O)c1ccc(Cc2c(-c3cccc(OCc4ccccc4)c3)nn(-c3nc(C(=O)O)cs3)c2CC2CC2)c(F)c1` [Compound 341], with less than 100 nM.

The same assay, now with this note: LDHA inhibitory activity, assay of Example 1; activity level classes.
`CCOC(=O)c1csc(-n2nc(CC3CC3)c(Cc3ccc(S(N)(=O)=O)c(F)c3)c2-c2ccc(F)c(-c3cccc(OC)c3)c2)n1` [Compound 321] gave an IC50 greater than 57000 nM.
`CS(=O)(=O)c1ccc(Cc2cn(-c3nc(C(=O)O)cs3)nc2-c2ccccc2)cc1` [Compound 27, 2-(4-(4-(methylsulfonyl)benzyl)-3-phenyl-1H-pyrazol-1-yl)thiazole-4-carboxylic acid] came in with an IC50 greater than 57000 nM.
`Nc1c(Cc2ccc(S(N)(=O)=O)cc2)c(-c2ccccc2)nn1-c1ccc(C(=O)O)nn1` [Compound 191, 6-(5-amino-3-phenyl-4-(4-sulfamoylbenzyl)-1H-pyrazol-1-yl)pyridazine-3-carboxylic acid]: the IC50 was greater than 57000 nM.
On the same count and under the same terms, then `O=C(O)c1csc(-n2nc(-c3cccc(F)c3F)cc2O)n1` [Compound 96, 2-(3-(2,3-difluorophenyl)-5-hydroxy-1H-pyrazol-1-yl)thiazole-4-carboxylic acid], with greater than 57000 nM; and `Cc1ccc(-c2cc(-c3nn(-c4nc(C(=O)O)cs4)c(C(F)(F)F)c3Cc3ccc(S(N)(=O)=O)cc3)ccc2F)cc1` [Compound 243], with less than 100 nM.
Still for that read-out and setting: then `Nc1c(Cc2ccc(S(N)(=O)=O)cc2)c(-c2ccccc2)nn1C(=O)c1cccc2cc[nH]c12` [Compound 150, 4-((5-ammo-1-(1H-indole-7-carbonyl)-3-phenyl-1H-pyrazol-4-yl)methyl)benzenesulfonamide], with greater than 57000 nM; and `CN(C)C(=O)Oc1cc(-c2ccc(F)c(F)c2)nn1-c1nc(C(=O)Oc2ccc3c(c2)CCC3)cs1` [Compound 107, 2,3-dihydro-1H-inden-5-yl 2-(3-(3,4-difluorophenyl)-5-((dimethylcarbamoyl)oxy)-1H-pyrazol-1-yl)thiazole-4-carboxylate], with greater than 57000 nM.
Turning to `O=C(OCCN1CCOCC1)c1csc(-n2nc(-c3ccc(F)c(F)c3)cc2O)n1` [Compound 106, 2-morpholinoethyl 2-(3-(3,4-difluorophenyl)-5-hydroxy-1H-pyrazol-1-yl)thiazole-4-carboxylate], the half-maximal inhibitory concentration (IC50) was greater than 57000 nM.
On to `N[S+](=O)([O-])c1ccc(Cc2c(-c3cccc(-c4cccc(F)c4)c3)nn(-c3nc(C(=O)O)cs3)c2C(F)(F)F)cc1` [Compound 313], for which the IC50 is less than 100 nM.
Compound `CCOC(=O)c1csc(-n2nc(-c3ccc(F)c(-c4cccc(F)c4)c3)c(Cc3ccc(S(N)(=O)=O)c(F)c3)c2C2CC2)n1` [Compound 247] gave an IC50 of 1000 to 57000 nM.
On the same count and under the same terms, then `NS(=O)(=O)c1ccc(Cc2c(-c3ccccc3)nn(-c3nc(C(=O)O)cs3)c2I)cc1` [Compound 45, 2-(5-iodo-3-phenyl-4-(4-sulfamoylbenzyl)-1H-pyrazol-1-yl)thiazole-4-carboxylic acid], with less than 100 nM; and `CNS(=O)(=O)c1ccc(Cc2c(-c3cccc(-c4ccccc4)c3)nn(-c3nc(C(=O)O)cs3)c2O)cc1` [Compound 124, 2-(3-([1,1′-biphenyl]-3-yl)-5-hydroxy-4-(4-(N-methylsulfamoyl)benzyl)-1H-pyrazol-1-yl)thiazole-4-carboxylic acid], with greater than 57000 nM.
The compound `O=C(O)c1csc(-n2nc(-c3c(F)cccc3F)cc2O)n1` [Compound 100, 2-(3-(2,6-difluorophenyl)-5-hydroxy-1H-pyrazol-1-yl)thiazole-4-carboxylic acid] showed an IC50 greater than 57000 nM.
On the same count and under the same terms, then `CC#Cc1cccc(-c2nn(-c3nc(C(=O)O)cs3)c(CC3CC3)c2Cc2ccc(S(N)(=O)=O)c(F)c2)c1` [Compound 270], with less than 100 nM.
On the same count and under the same terms, then `NS(=O)(=O)c1ccc(Cc2c(-c3ccccc3)nn(-c3nc(CO)cs3)c2Cc2nnn[nH]2)cc1` [Compound 132, 4-((5-((1H-tetrazol-5-yl)methyl)-1-(4-(hydroxymethyl)thiazol-2-yl)-3-phenyl-1H-pyrazol-4-yl)methyl)benzenesulfonamide], with greater than 57000 nM; and `Cc1ccc(-c2cc(-c3c(Cc4ccc(S(N)(=O)=O)cc4F)c(CC4CC4)nn3-c3nc(C(=O)O)cs3)ccc2F)cc1` [Compound 285], with 1000 to 57000 nM.
On to `NS(=O)(=O)c1ccc(Cc2c(-c3ccc(F)c(-c4cccc(F)c4)c3)nn(-c3nc(C(=O)O)cs3)c2C(F)(F)F)cc1` [Compound 241], for which the IC50 was less than 100 nM.
Still for that read-out and setting: then `NS(=O)(=O)c1ccc(CNc2cn(-c3nc(C(=O)O)cs3)nc2-c2ccccc2)cc1` [Compound 142, 2-(3-phenyl-4-((4-sulfamoylbenzyl)amino)-1H-pyrazol-1-yl)thiazole-4-carboxylic acid], with greater than 57000 nM.
On to `NS(=O)(=O)c1ccc(Cc2c(-c3cccnc3)nn(-c3nc(C(=O)O)cs3)c2O)cc1` [Compound 82, 2-(5-hydroxy-3-(pyridin-3-yl)-4-(4-sulfamoylbenzyl)-1H-pyrazol-1-yl)thiazole-4-carboxylic acid], for which the IC50 was in the range of 1000 to 57000 nM.
Still for that read-out and setting: then `O=C(O)c1csc(-n2nc(-c3ccc(F)c(F)c3)c3cccnc32)n1` [Compound 25, 2-(3-(3,4-difluorophenyl)-1H-pyrazolo[3,4-b]pyridin-1-yl)thiazole-4-carboxylic acid], with greater than 57000 nM.
For `CCOC(=O)c1csc(-n2nc(-c3ccc(F)c(F)c3)cc2O)n1` [Compound 121, ethyl 2-(3-(3,4-difluorophenyl)-5-hydroxy-1H-pyrazol-1-yl)thiazole-4-carboxylate], the IC50 is greater than 57000 nM.

The assay is the same for the next values; noted with them: read-out: Inhibitory activity IC50.
Take `Cc1cccc(C(=O)n2nc(-c3ccccc3)c(Cc3ccc(S(N)(=O)=O)cc3)c2N)c1` [Compound 84, 4-((5-amino-1-(3-methylbenzoyl)-3-phenyl-1H-pyrazol-4-yl)methyl)benzenesulfonamide]: the half-inhibitory concentration (IC50) lay within 1000 to 57000 nM.
As for `Cn1cc(-c2cc(-c3c(Cc4ccc(S(N)(=O)=O)c(F)c4)c(CC4CC4)nn3-c3nc(C(=O)O)cs3)ccc2F)cn1` [Compound 218, 2-(3-(cyclopropylmethyl)-5-(4-fluoro-3-(1-methyl-1H-pyrazol-4-yl)phenyl)-4-(3-fluoro-4-sulfamoylbenzyl)-1H-pyrazol-1-yl)thiazole-4-carboxylic acid], the half-maximal inhibitory concentration (IC50) was greater than 57000 nM.
On to `NS(=O)(=O)c1ccc(Cc2cn(-c3nc(C(=O)O)cs3)c3cc(C(=O)N4CCOCC4)ccc23)cc1` [Compound 37, 2-(6-(morpholine-4-carbonyl)-3-(4-sulfamoylbenzyl)-1H-indol-1-yl)thiazole-4-carboxylic acid], for which the IC50 fell in the range of 1000 to 57000 nM.
On the same count and under the same terms, then `NS(=O)(=O)N1CCN(Cc2cn(-c3nc(C(=O)O)cs3)nc2-c2ccccc2)CC1` [Compound 90, 2-(3-phenyl-4-((4-sulfamoylpiperazin-1-yl)methyl)-1H-pyrazol-1-yl)thiazole-4-carboxylic acid], with 1000 to 57000 nM; and `NS(=O)(=O)c1ccc(Cc2c(-c3ccccc3)nn(-c3nc(C(=O)O)cs3)c2C2CCCC2)cc1` [Compound 175, 2-(5-cyclopentyl-3-phenyl-4-(4-sulfamoylbenzyl)-1H-pyrazol-1-yl)thiazole-4-carboxylic acid], with 100 to 1000 nM.
The same measure, in the same setting: then `COc1cccc(-c2cc(-c3c(Cc4ccc([S+](N)(=O)[O-])c(F)c4)c(CC4CC4)nn3-c3nc(C(=O)O)cs3)ccc2F)c1` [Compound 329], with 1000 to 57000 nM; and `NS(=O)(=O)c1ccc(Oc2c(C3CC3)nn(-c3nc(C(=O)O)cs3)c2-c2ccccc2)cc1` [Compound 165], with 1000 to 57000 nM; and `NS(=O)(=O)c1ccc(Cc2cn(-c3nc(C(=O)O)cs3)c3ccc(OC4CCOCC4)cc23)cc1` [Compound 36, 2-(3-(4-sulfamoylbenzyl)-5-((tetrahydro-2H-pyran-4-yl)oxy)-1H-indol-1-yl)thiazole-4-carboxylic acid], with 100 to 1000 nM.
